The text below walks through data of patent US12600717B2, “Tricyclic compounds as inhibitors of KRAS” (Incyte Corporation, priority 2021, dated 2026).

SMILES strings stand for the structures.

One experiment has as its target KRAS G12D (Homo sapiens, UniProt P01116, G12D). In words: GDP-GTP exchange assay (bodipy-GDP/GppNHp, SOS1), KRAS G12D. It is filed as biochemical. The conditions noted are these: bodipy-loaded KRAS G12D 2.5 nM, 4 hours pre-incubation with inhibitor, 2 hours after GppNHp/SOS1; read-out: G12D_exchange IC50. As to the method:
(§1) The inhibitor potency of the exemplified compounds was determined in a fluorescence based guanine nucleotide exchange assay, which measures the exchange of bodipy-GDP (fluorescently labeled GDP) for GppNHp (Non-hydrolyzable GTP analog) to generate the active state of KRAS in the presence of SOS1 (guanine nucleotide exchange factor). Inhibitors were serially diluted in DMSO and a volume of 0.1 μL was transferred to the wells of a black low volume 384-well plate. 5 μL/well volume of bodipy-loaded KRAS G12D diluted to 2.5 nM in assay buffer (25 mM Hepes pH 7.5, 50 mM NaCl, 10 mM MgCl2 and 0.01% Brij-35) was added to the plate and pre-incubated with inhibitor for 4 hours at ambient temperature. Appropriate controls (enzyme with no inhibitor or with a G12D inhibitor) were included on the plate. The exchange was initiated by the addition of a 5 μL/well volume containing 1 mM GppNHp and 300 nM SOS1 in assay buffer. The 10 μL/well reaction concentration of the bodipy-loaded KRAS G12D, GppNHp, and SOS1 were 2.5 nM, 500 uM, and 150 nM, respectively. The reaction plates were incubated at ambient temperature for 2 hours, a time estimated for complete GDP-GTP exchange in the absence of inhibitor. For the KRAS G12V mutant, similar guanine nucleotide exchange assays were used with 2.5 nM as final concentration for the bodipy loaded KRAS proteins and 3 hours incubation after adding GppNHp-SOS1 mixture. A cyclic peptide described to selectively bind G12D mutant (Sakamoto et al., BBRC 484.3 (2017), 605-611) or internal compounds with confirmed binding were used as positive controls in the assay plates. Fluorescence intensities were measured on a PheraStar plate reader instrument (BMG Labtech) with excitation at 485 nm and emission at 520 nm.
(§2) Either GraphPad prism or Genedata Screener SmartFit was used to analyze the data. The IC50 values were derived by fitting the data to a four parameter logistic equation producing a sigmoidal dose-response curve with a variable Hill coefficient.
(§3) The symbol “†” indicates IC50≤100 nM, “††” indicates IC50>100 nM but ≤1 μM; and “†††” indicates IC50 is >1 μM but ≤5 μM, “††††” indicates IC50 is >5 μM but ≤10 μM. “NA” indicates IC50 not available.

In the next experiment the target is KRAS G12V (Homo sapiens, UniProt P01116, G12V). In words: GDP-GTP exchange assay (bodipy-GDP/GppNHp, SOS1), KRAS G12V. It is filed as biochemical. The conditions noted are these: bodipy-loaded KRAS G12V 2.5 nM, 3 hours incubation after adding GppNHp-SOS1; read-out: G12V_exchange IC50. As to the method: as §1, §2, §3
Sequence of KRAS G12V (P01116 1-188 isoform P01116-2 G12V): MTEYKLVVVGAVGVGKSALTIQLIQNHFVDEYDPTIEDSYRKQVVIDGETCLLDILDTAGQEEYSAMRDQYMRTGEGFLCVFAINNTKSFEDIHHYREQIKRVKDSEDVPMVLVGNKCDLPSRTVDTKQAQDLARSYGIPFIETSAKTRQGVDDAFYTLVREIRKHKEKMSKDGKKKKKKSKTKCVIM

Sequence of KRAS G12D (P01116 1-188 isoform P01116-2 G12D): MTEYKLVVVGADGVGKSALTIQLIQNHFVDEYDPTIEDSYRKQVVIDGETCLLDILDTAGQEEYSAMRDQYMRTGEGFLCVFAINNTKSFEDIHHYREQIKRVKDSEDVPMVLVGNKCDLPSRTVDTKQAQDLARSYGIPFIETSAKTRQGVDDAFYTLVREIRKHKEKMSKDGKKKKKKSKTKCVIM

Consider `CCc1nc2c(OCC34CCCN3CC(F)C4)nc3c(F)c(-c4c[nH]c5ccc(F)cc45)c(CCC#N)cc3c2n1C1C2CNC1C2` (mixture of isomers) [Example 30, 3-(1-((endo)-2-azabicyclo[2.1.1]hexan-5-yl)-2-ethyl-6-fluoro-7-(5-fluoro-1H-indol-3-yl)-4-(((2R,7aS)-2-fluorotetrahydro-1H-pyrrolizin-7a(5H)-yl)methoxy)-1H-imidazo[4,5-c]quinolin-8-yl)propanenitrile], for which the IC50 at KRAS G12D is no more than 0.1 µM; at KRAS G12V, 0.1 to 1 µM.

As for `CN(C)C(=O)CCc1nc2c(N3CC(N(C)C)C3)nc3c(F)c(-c4cc(O)cc5ccccc45)c(Cn4cccn4)cc3c2n1[C@@H]1[C@@H]2CN[C@H]1C2` (relative stereo) [Example 9, 3-(8-((1H-pyrazol-1-yl)methyl)-1-((endo)-2-azabicyclo[2.1.1]hexan-5-yl)-4-(3-(dimethylamino)azetidin-1-yl)-6-fluoro-7-(3-hydroxynaphthalen-1-yl)-1H-imidazo[4,5-c]quinolin-2-yl)-N,N-dimethylpropanamide], the IC50 on KRAS G12D and at KRAS G12V was no more than 0.1 µM throughout.

On to `CN(C)C(=O)CCc1nc2c(N3CC(N(C)C)C3)nc3c(-c4cccc(C#N)c4)c(-c4cc(O)cc5ccccc45)c(CCC#N)cc3c2n1[C@@H]1[C@@H]2CN[C@H]1C2` (relative stereo) [Example 12, 3-(1-((endo)-2-azabicyclo[2.1.1]hexan-5-yl)-8-(2-cyanoethyl)-6-(3-cyanophenyl)-4-(3-(dimethylamino)azetidin-1-yl)-7-(3-hydroxynaphthalen-1-yl)-1H-imidazo[4,5-c]quinolin-2-yl)-N,N-dimethylpropanamide], for which the IC50 was in the range of 0.1 to 1 µM at KRAS G12D and 5 to 10 µM on KRAS G12V.

Regarding `CN(C)C(=O)CCc1nc2c(N3CC(N(C)C)C3)nc3c(OCc4ccccc4)c(-c4cccc5ccc(F)cc45)c(CCC#N)cc3c2n1[C@@H]1[C@@H]2CN[C@H]1C2` (relative stereo) [Example 14, 3-(6-(benzyloxy)-1-((endo)-2-azabicyclo[2.1.1]hexan-5-yl)-8-(2-cyanoethyl)-4-(3-(dimethylamino)azetidin-1-yl)-7-(7-fluoronaphthalen-1-yl)-1H-imidazo[4,5-c]quinolin-2-yl)-N,N-dimethylpropanamide], the half-maximal inhibitory concentration (IC50) on KRAS G12D fell in the range of 0.1 to 1 µM; on KRAS G12V it was 5 to 10 µM.

With `CN(C)C(=O)CCc1nc2c(N3CC(N(C)C)C3)nc3c(F)c(-c4cc(O)cc5ccccc45)cc(CO)c3c2n1[C@@H]1[C@@H]2CN[C@H]1C2` (relative stereo) [Example 15, 3-(1-((endo)2-azabicyclo[2.1.1]hexan-5-yl)-4-(3-(dimethylamino)azetidin-1-yl)-6-fluoro-9-(hydroxymethyl)-7-(3-hydroxynaphthalen-1-yl)-1H-imidazo[4,5-c]quinolin-2-yl)-N,N-dimethylpropanamide], the IC50 on KRAS G12D was no more than 0.1 µM; on KRAS G12V, 1 to 5 µM.

`CNCCc1nc2c(N3CC(N(C)C)C3)nc3c(F)c(-c4cc(O)cc5ccccc45)c(Cc4ccc(C#N)cc4)cc3c2n1[C@@H]1[C@@H]2CN[C@H]1C2` (relative stereo) [Example 29, 4-((1-((endo)-2-azabicyclo[2.1.1]hexan-5-yl)-4-(3-(dimethylamino)azetidin-1-yl)-6-fluoro-7-(3-hydroxynaphthalen-1-yl)-2-(2-(methylamino)ethyl)-1H-imidazo[4,5-c]quinolin-8-yl)methyl)benzonitrile]: the IC50 at KRAS G12D lay within 0.1 to 1 µM; on KRAS G12V, 5 to 10 µM.

`CN(C)C(=O)CCc1nc2c(N3CC(N(C)C)C3)nc3c(F)c(-c4cccc5c4CC(F)(F)CC5)c(CCC#N)cc3c2n1[C@@H]1[C@@H]2CN[C@H]1C2` (relative stereo) [Example 33, 3-(1-endo-(2-azabicyclo[2.1.1]hexan-5-yl)-8-(2-cyanoethyl)-7-(7,7-difluoro-5,6,7,8-tetrahydronaphthalen-1-yl)-4-(3-(dimethylamino)azetidin-1-yl)-6-fluoro-1H-imidazo[4,5-c]quinolin-2-yl)-N,N-dimethylpropanamide]: the IC50 on KRAS G12D was no more than 0.1 µM; at KRAS G12V, 1 to 5 µM.

On to `CC(=O)N1CCCC(c2nc3c(N4CC(N(C)C)C4)nc4c(F)c(-c5cc(O)cc6ccccc56)c(C)cc4c3n2C2C3CNC2C3)C1` (single isomer, unassigned) [Example 1a, 1-(3-(1-((endo)-2-azabicyclo[2.1.1]hexan-5-yl)-4-(3-(dimethylamino)azetidin-1-yl)-6-fluoro-7-(3-hydroxynaphthalen-1-yl)-8-methyl-1H-imidazo[4,5-c]quinolin-2-yl)piperidin-1-yl)ethan-1-one], for which the IC50 at KRAS G12D fell in the range of 0.1 to 1 µM.

In the case of `Cc1cc2c(nc(N3CC(N(C)C)C3)c3nc(CCC(=O)N4CCN(c5ncccn5)CC4)n(C4C5CNC4C5)c32)c(F)c1-c1cc(O)cc2ccccc12` (single isomer, unassigned) [Example 2a, 3-(1-((endo)-2-azabicyclo[2.1.1]hexan-5-yl)-4-(3-(dimethylamino)azetidin-1-yl)-6-fluoro-7-(3-hydroxynaphthalen-1-yl)-8-methyl-1H-imidazo[4,5-c]quinolin-2-yl)-1-(4-(pyrimidin-2-yl)piperazin-1-yl)propan-1-one], the IC50 was no more than 0.1 µM at KRAS G12D and 1 to 5 µM on KRAS G12V.

In the case of `CN(C)C1CN(c2nc3c(F)c(-c4cc(O)cc5ccccc45)c(CCC#N)cc3c3c2nc(CCC(=O)N2CC4(CCOCC4)C2)n3C2C3CNC2C3)C1` (single isomer, unassigned) [Example 3a, 3-(1-((endo)-2-azabicyclo[2.1.1]hexan-5-yl)-4-(3-(dimethylamino)azetidin-1-yl)-6-fluoro-7-(3-hydroxynaphthalen-1-yl)-2-(3-oxo-3-(7-oxa-2-azaspiro[3.5]nonan-2-yl)propyl)-1H-imidazo[4,5-c]quinolin-8-yl)propanenitrile], the IC50 on KRAS G12D and at KRAS G12V was no more than 0.1 µM throughout.

`CC(=O)N1CCN(C(=O)CCc2nc3c(N4CC(N(C)C)C4)nc4c(F)c(-c5cc(O)cc6ccccc56)c(CCC#N)cc4c3n2C2C3CNC2C3)CC1` (single isomer, unassigned) [Example 4a, 3-(2-(3-(4-acetylpiperazin-1-yl)-3-oxopropyl)-1-((endo)-2-azabicyclo[2.1.1]hexan-5-yl)-4-(3-(dimethylamino)azetidin-1-yl)-6-fluoro-7-(3-hydroxynaphthalen-1-yl)-1H-imidazo[4,5-c]quinolin-8-yl)propanenitrile]: the IC50 at KRAS G12D and on KRAS G12V was no more than 0.1 µM in each case.

As for `CN(C)C1CN(c2nc3c(F)c(-c4cc(O)cc5ccccc45)c(CCC#N)cc3c3c2nc(CN2CCCC2=O)n3C2C3CNC2C3)C1` (single isomer, unassigned) [Example 5a, 3-(1-((endo)-2-azabicyclo[2.1.1]hexan-5-yl)-4-(3-(dimethylamino)azetidin-1-yl)-6-fluoro-7-(3-hydroxynaphthalen-1-yl)-2-((2-oxopyrrolidin-1-yl)methyl)-1H-imidazo[4,5-c]quinolin-8-yl)propanenitrile], the IC50 at KRAS G12D and on KRAS G12V was no more than 0.1 µM in each case.

`CCc1nc2c(N3CC(N(C)C)C3)nc3c(F)c(-c4cc(O)cc5ccccc45)c(-c4cnco4)cc3c2n1C1C2CNC1C2` (single isomer, unassigned) [Example 6a, 4-(1-((endo)-2-azabicyclo[2.1.1]hexan-5-yl)-4-(3-(dimethylamino)azetidin-1-yl)-2-ethyl-6-fluoro-8-(oxazol-5-yl)-1H-imidazo[4,5-c]quinolin-7-yl)naphthalen-2-ol]: the results for the IC50 on KRAS G12D and at KRAS G12V were 0.1 to 1 µM and 5 to 10 µM, respectively.

With `CCc1nc2c(N3CC(N(C)C)C3)nc3c(F)c(-c4cc(O)cc5ccccc45)c(C(CC#N)n4cccn4)cc3c2n1C1C2CNC1C2` (single isomer, unassigned) [Example 7a, 3-(1-((endo)-2-azabicyclo[2.1.1]hexan-5-yl)-4-(3-(dimethylamino)azetidin-1-yl)-2-ethyl-6-fluoro-7-(3-hydroxynaphthalen-1-yl)-1H-imidazo[4,5-c]quinolin-8-yl)-3-(1H-pyrazol-1-yl)propanenitrile], the IC50 was no more than 0.1 µM on KRAS G12D and 0.1 to 1 µM at KRAS G12V.
